In brackets after ≈: the same amount, converted by molar mass.
How the values were obtained:
Type in all cases: functional
[1] = test system: Staphylococcus epidermidis; experiment: Antibacterial activity against methicillin-resistant Staphylococcus epidermidis assessed as zone of inhibition at 20 ug/mL after 24 hrs by agar disc diffusion method; details: read-out: IZ
Staphylococcus aureus [2] = experiment: Antibacterial activity against methicillin-resistant Staphylococcus aureus assessed as zone of inhibition at 800 ng/mL after 24 hrs by agar disc diffusion method; details: read-out: IZ
Staphylococcus aureus [3] = experiment: Antibacterial activity against methicillin-resistant Staphylococcus aureus after overnight incubation by micro broth dilution analysis
Staphylococcus aureus [4] = experiment: Antibacterial activity against methicillin-resistant Staphylococcus aureus assessed as zone of inhibition at 200 ng/mL after 24 hrs by agar disc diffusion method; details: read-out: IZ
Staphylococcus aureus [5] = experiment: Antibacterial activity against methicillin-resistant Staphylococcus aureus assessed as zone of inhibition at 50 ug/mL after 24 hrs by agar disc diffusion method; details: read-out: IZ
Staphylococcus aureus [6] = experiment: Antibacterial activity against methicillin-resistant Staphylococcus aureus assessed as zone of inhibition at 400 ng/mL after 24 hrs by agar disc diffusion method; details: read-out: IZ
[7] = test system: Staphylococcus haemolyticus; experiment: Antibacterial activity against methicillin-resistant Staphylococcus haemolyticus after overnight incubation by micro broth dilution analysis
[8] = test system: Staphylococcus haemolyticus; experiment: Antibacterial activity against methicillin-resistant Staphylococcus haemolyticus assessed as zone of inhibition at 50 ug/mL after 24 hrs by agar disc diffusion method; details: read-out: IZ
[9] = test system: Staphylococcus epidermidis; experiment: Antibacterial activity against methicillin-resistant Staphylococcus epidermidis after overnight incubation by micro broth dilution analysis

Row | Structure (SMILES) | zone of inhibition at 20 µg/mL [1] [mm] | zone of inhibition at 0.8 µg/mL (Staphylococcus aureus [2]) [mm] | MIC99 (Staphylococcus aureus [3]) [µg/mL] | zone of inhibition at 0.2 µg/mL (Staphylococcus aureus [4]) [mm] | zone of inhibition at 50 µg/mL (Staphylococcus aureus [5]) [mm] | zone of inhibition at 0.4 µg/mL (Staphylococcus aureus [6]) [mm] | MIC99 [7] [µg/mL] | zone of inhibition at 50 µg/mL [8] [mm] | MIC99 [9] [µg/mL]
1 | O=S(=O)(F)/C=C/c1ccc(F)cc1F | 3.7 | 4.1 | 16.1 (≈ 72.3 µM) | 3.1 | 14.1 | 3.5 | 55.1 (≈ 248 µM) | 3.5 | 47 (≈ 212 µM)
2 | Cc1ccc(S(=O)(=O)n2cc(/C=C/S(=O)(=O)F)c3ccccc32)cc1 | 4.1 |  | 47.1 (≈ 124 µM) |  | 5.1 |  | 58 (≈ 153 µM) | 4.2 | 51.2 (≈ 135 µM)
3 | O=S(=O)(F)/C=C/C=C/c1ccc(Br)cc1 | 5.4 |  | 51.1 (≈ 176 µM) |  | 4.5 |  | 70 (≈ 241 µM) | 4.5 | 57 (≈ 196 µM)
4 | O=S(=O)(F)/C=C/c1ccc(-c2ccccc2)cc1 | 5.1 |  | 53.2 (≈ 203 µM) |  | 4.3 |  | 56.1 (≈ 214 µM) | 3.5 | 65.1 (≈ 248 µM)
5 | O=Cc1ccc(/C=C/S(=O)(=O)F)cc1 | 4.3 |  | 45.6 (≈ 213 µM) |  | 6 |  | 60.1 (≈ 281 µM) | 5.2 | 48.2 (≈ 225 µM)
6 | COc1ccc(Cl)cc1/C=C/S(=O)(=O)F | 5.2 |  | 51.1 (≈ 204 µM) |  | 5.1 |  | 47 (≈ 188 µM) | 5.2 | 40.4 (≈ 161 µM)
7 | COc1cc(/C=C/S(=O)(=O)F)cc(OC)c1 | 5.3 | 15.1 | 0.81 (≈ 3.29 µM) | 1.2 | 18.1 | 13.1 | 50 (≈ 203 µM) | 4.5 | 57.1 (≈ 232 µM)
8 | O=S(=O)(F)/C=C/c1ccccc1O | 6.2 | 7.7 | 0.853 (≈ 4.22 µM) | 3.5 | 12.1 | 5.2 | 61 (≈ 302 µM) | 3.5 | 58 (≈ 287 µM)
9 | O=S(=O)(F)/C=C/c1ccsc1 | 8.5 | 4.5 | 16.6 (≈ 86.4 µM) | 3.2 | 8.2 | 4.2 | 48 (≈ 250 µM) | 4.52 | 66.1 (≈ 344 µM)
10 | O=Cc1ccc(/C=C/S(=O)(=O)F)o1 | 7.4 |  | 0.845 (≈ 4.14 µM) |  | 7.2 |  | 55.1 (≈ 270 µM) | 4.5 | 61 (≈ 299 µM)
11 | O=S(=O)(F)/C=C/c1ccc2ccccc2c1 | 4.4 |  | 47 (≈ 199 µM) |  | 7.2 |  | 65.5 (≈ 277 µM) | 3.5 | 43.1 (≈ 183 µM)
12 | CCOC(=O)c1ccc(/C=C/S(=O)(=O)F)cc1 | 5.5 |  | 41.1 (≈ 159 µM) |  | 6.1 |  | 67.3 (≈ 261 µM) | 4.2 | 56.1 (≈ 217 µM)
13 | O=S(=O)(F)/C=C/C=C/c1ccc(F)c(F)c1 | 5.5 |  | 50.1 (≈ 202 µM) |  | 6.1 |  | 55.1 (≈ 222 µM) | 4.3 | 51.6 (≈ 208 µM)
14 | CCc1ccc(/C=C/S(=O)(=O)F)cc1 | 6.1 |  | 45.1 (≈ 211 µM) |  | 5.1 |  | 60 (≈ 280 µM) | 3.5 | 56.2 (≈ 262 µM)
15 | COc1ccc(/C=C/S(=O)(=O)F)cc1 | 60.4 |  | 48.1 (≈ 222 µM) |  | 52 |  | 68.2 (≈ 315 µM) | 6.3 | 51.3 (≈ 237 µM)
16 | O=S(=O)(F)/C=C/c1cccc(C(F)(F)F)c1 | 4.1 | 7.7 | 0.836 (≈ 3.29 µM) | 4.1 | 10.1 | 5.4 | 43.2 (≈ 170 µM) | 4.2 | 40.1 (≈ 158 µM)
17 | CC(C)(C)c1ccc(/C=C/C=C/S(=O)(=O)F)cc1 | 5.5 |  | 58.2 (≈ 217 µM) |  | 6.3 |  | 65.3 (≈ 243 µM) | 4.5 | 62.1 (≈ 232 µM)
18 | O=S(=O)(F)/C=C/C=C/c1ccc2ccccc2c1 | 5.4 |  | 58 (≈ 221 µM) |  | 3.3 |  | 51 (≈ 195 µM) | 4.5 | 63 (≈ 240 µM)
19 | O=S(=O)(F)/C=C/c1ccc(I)cc1 | 5.2 |  | 48.2 (≈ 154 µM) |  | 5.2 |  | 47.6 (≈ 153 µM) | 4.4 | 50.6 (≈ 162 µM)

Row | Structure (SMILES) | zone of inhibition at 20 µg/mL [1] [mm] | zone of inhibition at 0.8 µg/mL (Staphylococcus aureus [2]) [mm] | MIC99 (Staphylococcus aureus [3]) [µg/mL] | zone of inhibition at 0.2 µg/mL (Staphylococcus aureus [4]) [mm] | zone of inhibition at 50 µg/mL (Staphylococcus aureus [5]) [mm] | zone of inhibition at 0.4 µg/mL (Staphylococcus aureus [6]) [mm] | MIC99 [7] [µg/mL] | zone of inhibition at 50 µg/mL [8] [mm] | MIC99 [9] [µg/mL]
20 | O=C(O)c1ccc(/C=C/S(=O)(=O)F)cc1 | 6.5 |  | 55.3 (≈ 240 µM) |  | 7.2 |  | 43.3 (≈ 188 µM) | 3.3 | 50.1 (≈ 217 µM)
21 | O=S(=O)(F)/C=C/C=C/c1ccccc1 | 6.2 |  | 56.2 (≈ 265 µM) |  | 6.2 |  | 58.1 (≈ 274 µM) | 5.2 | 52 (≈ 245 µM)
22 | O=S(=O)(F)/C=C/c1ccc(Oc2ccccc2)cc1 | 6.4 |  | 51.2 (≈ 184 µM) |  | 4.4 |  | 61.1 (≈ 220 µM) | 4.1 | 44.2 (≈ 159 µM)
23 | O=S(=O)(F)/C=C/c1ccc(O)cc1 | 4.5 | 5.2 | 16.1 (≈ 79.4 µM) | 3.2 | 10.2 | 4.3 | 57.1 (≈ 283 µM) | 3.5 | 45 (≈ 223 µM)
24 | CCOC(=O)c1cccc(/C=C/S(=O)(=O)F)c1 | 4.2 |  | 40.6 (≈ 157 µM) |  | 4.2 |  | 50.2 (≈ 194 µM) | 4.3 | 53 (≈ 205 µM)
25 | Cc1ccc(/C=C/C=C/S(=O)(=O)F)cc1 | 4.1 |  | 60.6 (≈ 268 µM) |  | 4.1 |  | 51 (≈ 225 µM) | 4.3 | 57 (≈ 252 µM)
26 | O=S(=O)(F)/C=C/C=C/c1ccc(/C=C/S(=O)(=O)F)cc1 | 4.2 |  | 66.8 (≈ 209 µM) |  | 5.3 |  | 55 (≈ 172 µM) | 3.5 | 56 (≈ 175 µM)
27 | O=S(=O)(F)/C=C/c1coc2ccccc12 | 6.4 |  | 45 (≈ 199 µM) |  | 6.2 |  | 51 (≈ 225 µM) | 3.5 | 52.1 (≈ 231 µM)
28 | O=S(=O)(F)/C=C/c1cccc(-c2ccccc2)c1 | 5.5 |  | 40.1 (≈ 153 µM) |  | 7.8 |  | 40.2 (≈ 153 µM) | 5.2 | 44.1 (≈ 168 µM)
29 | O=S(=O)(F)/C=C/c1cnn(-c2ccccc2)c1 | 4.3 |  | 51.2 (≈ 203 µM) |  | 3.1 |  | 51.1 (≈ 203 µM) | 3.5 | 52.3 (≈ 207 µM)
30 | Cc1ccc(S(=O)(=O)n2ccc3cc(/C=C/S(=O)(=O)F)ccc32)cc1 | 4.3 |  | 60.6 (≈ 160 µM) |  | 4.2 |  | 61 (≈ 161 µM) | 3.5 | 66 (≈ 174 µM)
31 | N#Cc1cccc(/C=C/C=C/S(=O)(=O)F)c1 | 4.5 |  | 41.2 (≈ 174 µM) |  | 3.5 |  | 51.2 (≈ 216 µM) | 5.1 | 50 (≈ 211 µM)
32 | O=Cc1ccccc1/C=C/S(=O)(=O)F | 4.3 |  | 47.2 (≈ 220 µM) |  | 6.1 |  | 44.1 (≈ 206 µM) | 4.2 | 52.1 (≈ 243 µM)
33 | O=S(=O)(F)/C=C/c1cccc(/C=C/S(=O)(=O)F)c1 | 6.5 |  | 44.1 (≈ 150 µM) |  | 4.2 |  | 50 (≈ 170 µM) | 4.4 | 41.2 (≈ 140 µM)
34 | Cc1ccc(S(=O)(=O)n2c3ccccc3c3cc(/C=C/S(=O)(=O)F)ccc32)cc1 | 3.5 |  | 48 (≈ 112 µM) |  | 4.3 |  | 58 (≈ 135 µM) | 3.3 | 50.1 (≈ 117 µM)
35 | O=S(=O)(F)/C=C/c1cccs1 | 4.5 |  | 52 (≈ 271 µM) |  | 5.2 |  | 50.6 (≈ 263 µM) | 4.1 | 50.1 (≈ 260 µM)
36 | O=S(=O)(F)/C=C/C=C/c1ccc(C(F)(F)F)cc1 | 6.5 |  | 59.1 (≈ 211 µM) |  | 5.1 |  | 67 (≈ 239 µM) | 4.5 | 55.2 (≈ 197 µM)
37 | O=S(=O)(F)/C=C/C=C/c1ccccc1C(F)(F)F | 4.1 |  | 55.1 (≈ 197 µM) |  | 4.1 |  | 55.1 (≈ 197 µM) | 4.3 | 52.6 (≈ 188 µM)
38 | O=S(=O)(F)/C=C/c1cccc2c1oc1ccccc12 | 3.5 |  | 17 (≈ 61.6 µM) |  | 6.3 |  | 47 (≈ 170 µM) | 3.3 | 67.5 (≈ 244 µM)

Reference: ChEMBL document CHEMBL4382233, “Discovery of novel arylethenesulfonyl fluorides as potential candidates against methicillin-resistant of Staphylococcus aureus (MRSA) for overcoming multidrug resistance of bacterial infections” (2019)
